Data published in ChEMBL document CHEMBL5576095, “Research progress of multi-target HDAC inhibitors blocking the BRD4-LIFR-JAK1-STAT3 signaling pathway in the treatment of cancer” (Bioorg Med Chem, 2024).
Values belong to the molecule of their own block, whether it stands above or below them.

Columns and labels:
MV4-11 = test: Antiproliferative activity against human MV4-11 cells assessed as reduction in cell growth; format: functional, cell-based
[1] = tested on: KATO III stomach cancer cell line; test: cells; settings: Homo sapiens
Description: Antiproliferative activity against human KATO III stomach cancer cell line

Histone deacetylase 1 = Histone deacetylase 1 (Homo sapiens, UniProt Q13547); test: Inhibition of HDAC1 (unknown origin)
[2] = biological target: Tyrosine-protein kinase JAK1 (Homo sapiens, UniProt P23458); test: Inhibition of JAK1 (unknown origin)
[3] = Inhibition of CD4 (unknown origin)

Tyrosine-protein kinase JAK1, sequence (P23458 whole entry): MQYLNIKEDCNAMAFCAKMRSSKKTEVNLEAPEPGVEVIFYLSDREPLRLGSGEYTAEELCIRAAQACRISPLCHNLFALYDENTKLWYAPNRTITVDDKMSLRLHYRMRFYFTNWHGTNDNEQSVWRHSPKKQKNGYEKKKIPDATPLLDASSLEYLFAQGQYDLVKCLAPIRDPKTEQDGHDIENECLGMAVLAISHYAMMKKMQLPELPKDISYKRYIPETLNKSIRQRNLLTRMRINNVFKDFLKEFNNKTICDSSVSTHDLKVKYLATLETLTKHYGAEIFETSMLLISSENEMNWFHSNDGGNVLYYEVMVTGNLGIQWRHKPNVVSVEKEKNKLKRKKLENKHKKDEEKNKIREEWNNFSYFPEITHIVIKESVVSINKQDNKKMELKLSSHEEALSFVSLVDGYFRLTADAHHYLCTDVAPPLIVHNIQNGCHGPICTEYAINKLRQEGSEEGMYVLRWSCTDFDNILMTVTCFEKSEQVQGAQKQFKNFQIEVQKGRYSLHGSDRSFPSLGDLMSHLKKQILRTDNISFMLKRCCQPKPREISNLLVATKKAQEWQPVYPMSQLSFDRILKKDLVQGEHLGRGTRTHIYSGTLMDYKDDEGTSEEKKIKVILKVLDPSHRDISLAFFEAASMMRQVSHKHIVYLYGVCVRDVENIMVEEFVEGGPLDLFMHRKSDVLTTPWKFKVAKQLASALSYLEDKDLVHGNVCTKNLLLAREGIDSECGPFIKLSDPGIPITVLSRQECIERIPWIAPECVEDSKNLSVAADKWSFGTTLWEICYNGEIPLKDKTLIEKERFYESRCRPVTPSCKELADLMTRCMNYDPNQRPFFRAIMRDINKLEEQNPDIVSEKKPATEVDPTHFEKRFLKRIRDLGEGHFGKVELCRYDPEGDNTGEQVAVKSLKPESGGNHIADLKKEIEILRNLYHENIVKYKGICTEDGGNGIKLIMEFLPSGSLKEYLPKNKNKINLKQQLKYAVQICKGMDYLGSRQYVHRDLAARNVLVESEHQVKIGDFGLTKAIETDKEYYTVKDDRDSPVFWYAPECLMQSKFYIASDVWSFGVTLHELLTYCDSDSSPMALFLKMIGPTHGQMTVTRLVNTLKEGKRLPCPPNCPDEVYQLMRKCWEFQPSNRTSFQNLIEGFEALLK
Histone deacetylase 1, sequence (Q13547 whole entry): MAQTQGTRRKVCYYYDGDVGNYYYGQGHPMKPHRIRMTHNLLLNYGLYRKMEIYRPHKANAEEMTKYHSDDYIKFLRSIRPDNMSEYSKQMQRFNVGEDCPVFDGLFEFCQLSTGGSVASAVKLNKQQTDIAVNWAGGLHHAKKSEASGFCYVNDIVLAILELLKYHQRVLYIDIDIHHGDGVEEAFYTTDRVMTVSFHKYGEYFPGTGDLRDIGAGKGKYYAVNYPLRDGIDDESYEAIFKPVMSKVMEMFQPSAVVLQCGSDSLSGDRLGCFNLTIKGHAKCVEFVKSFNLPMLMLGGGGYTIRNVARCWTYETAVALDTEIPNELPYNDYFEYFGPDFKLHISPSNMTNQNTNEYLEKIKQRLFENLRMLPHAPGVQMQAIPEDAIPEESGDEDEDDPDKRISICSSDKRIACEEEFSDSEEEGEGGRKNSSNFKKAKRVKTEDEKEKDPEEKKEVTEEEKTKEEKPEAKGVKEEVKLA

- IC50 (MV4-11): 0.04 µM
Compound: CCNC(=O)c1cc2c(-c3cc(C(C)(C)O)ccc3Oc3c(C)cc(F)cc3C)cn(C)c(=O)c2[nH]1 [ABBV-744]

Compound: COc1cc(OC)cc(N(CCNC(C)C)c2ccc3ncc(-c4cnn(C)c4)nc3c2)c1 [ERDAFITINIB]
- IC50 [1]: 0.004 µM

- IC50 (Histone deacetylase 1): 0.026 µM
- IC50 [2]: 0.022 µM
- IC50 [3]: 0.0012 µM
Compound: CCn1c(C)nc2c(F)cc(-c3nc(Nc4ccc(CNC(=O)CCCCCCC(=O)NO)cc4)ncc3F)cc21
